Data on seven molecules can be found in patent publication US20240358829A1, “Lymphocyte Population and Methods for Producing Same” (AVM Biotechnology, LLC, priority 2021, published 2024).

“Also recorded” adds a separate entry of the source. Read-outs that look alike come from different tables or passages of the source.

Data set [1] deals with AVM-NKT cells (CD3highCD49b+). In kind it is in vivo, mouse. The note with it: for induction of AVM-NKT cells by comparators: naïve mice, standard Cy/Flu chemotherapy or methylprednisone. An excerpt:
Mice were anesthetized with isoflurane gas.

For data set [2], the system named is peripheral blood lymphocytes. Briefly: Lymphodepletion study in naïve mice (complete blood count, flow cytometry).
Protocol: For initial lymphodepletion studies, naïve C57Bl/6 mice were treated with 18 mg/kg HED DP by oral gavage. Male C57BL/6 mice were obtained from Taconic Bioscience (Germantown, NY) and acclimated to laboratory conditions for at least one week. […] Each dosed timepoint group was accompanied by a placebo group of the same age and condition according to Table 3. […] When mice reached study timepoint, they were euthanized as follows. Mice were anesthetized with isoflurane gas. Once anesthetized, blood was drawn via cardiac puncture and place immediately in heparin-lined microtubes. 10 mL of 5 U/mL of Heparin/PBS was used for infused by slow push for retrograde perfusion via the abdominal aorta to flush out all remaining blood from the vasculature. Subsequently, 250 μL of blood was transferred to a lavender-topped EDTA-lined microtube and transported to by Lynette Brown at Flow Contract Site Labs (Bothell, WA) for analysis by flow cytometry. The remaining blood was sent to Phoenix Labs (Mukilteo, WA) for Complete Blood Counts and Clinical Chemistries
A further data set has as its system A20 cells. The experiment in a line: A20 cells treated with high dose dexamethasone in vitro. In kind it is cell-based, mouse. The note with it: 72 hours after high dose dexamethasone treatment in vitro.
The conditions of data set [3]: in vivo; cited from earlier work.
In data set [4] the test system is human AVM-NKT cells (human CD56+ cells). Briefly: Humanized mice orally dosed with DSP (Example 8). The class given is in vivo, mouse. The note with it: oral HED 18-45 mg/kg, 24-48 hours later. As to the method: BRGSF humanized mice on a Balb/c background from Genoway generated by transplanting human umbilical cord blood CD34+ stem cells into irradiated mice that lack mouse B and T lymphocytes and NK cells but have a functional mouse complement system are orally dosed with HED 18-45 mg/kg DSP.
NCG mice are humanized by adoptive transfer using human umbilical cord blood-derived CD34+ stem cells, following myeloablation treatment. NCG mice from 4 donors (n=2 per donor) are orally dosed with HED 18-45 mg/kg DSP.
huNOG EXL from Taconic have an average of 54% of CD45 cells positive for human CD45. Six huNOG EXL humanized immune system mice from 3 donors (n=2 per donor) are orally dosed with HED 18-45 mg/kg DSP.

For a further data set, the system named is A20 B cell lymphoma. Conditions: 18 mg/kg HED. The procedure:
FIG. 10B. […] Mice were inoculated with A20 lymphoma 2×10^6 cells in 100 μL of PBS mixed with 100 μL of chilled Matrigel into their flank. Three, 24 and 48 hours later mice were euthanized and tumors, blood, bone marrow and thymus were taken and made into single cell suspensions for flow cytometry detection of live A20 cells.

A further data set deals with CD56+γδTCR+iTCR+ cells. Briefly: AVM0703 R/R NHL clinical trial, whole blood flow cytometry. The class given is in vivo, human. The note with it: listed as DP. The procedure:
FIG. 15. 101-001 size (FSC) and complexity (SSC) scattergram of AVM_NKT cells. […] Blood was stained with panel antibodies based for 15 minutes in the dark at Room Temperature. RBC lysis was performed by addition of 1 mL of 1×BD FACS Lysing Solution (BD Bioscience), diluted with MilliQ water, for 10 minutes in the dark at Room Temperature. Samples were washed with 2 mL 1×DPBS CMF (Gibco) and resuspended in 300 μL of 1×DPBS CMF before 5 μL of 7AAD (Biolegend) was added to each sample for live/dead cell determination and incubated for 5 minutes in the dark at Room Temperature. 250 μL of sample were taken up for acquisition on Macsquant 16 Flow Cytometer (Miltenyi, Serial #40150). Live white blood cells were gated for CD56+ cells co-expressing gamma delta TCR and the invariant TCR and labelled red in the forward versus side scattergram. Red-labelled cells fall within the forward versus side scattergrams where large granular cells such as neutrophils and large granular lymphocytes are known to fall.
For characterisation of the induced/mobilized population of NKT-like cells (AVM-NKT) in humans, whole blood from human subjects was drawn in K2 EDTA Vacutainer tube (367862, BD Biosciences, NJ) and shipped to AVM Biotechnology at room temperature. 100 μl of whole blood was stained with the following antibodies: CD45 AF700 (2D1), CD16 APC (3G8), INKT PECy7 (6B11), CD8 PE (SK1), CD14 FITC (M5E2), CD56 BV650 (5.1H11), γδTCR BV510 (B1), CD19 BV421 (HIB19), NKp44 APC (P44-8) (all from Biolegend, San Diego, CA) and CD3 APCVio770 (BW264/56), (Miltenyi Biotec, San Jose, CA), 7-AAD, (Biolegend, San Diego CA) was included to distinguish the live and dead cells.
(In general: A flow cytometer gives signals particle by particle.)

The test system of a further data set is R/R NHL. Briefly: AVM0703 R/R NHL clinical trial, clinical and PET/CT response, survival. In kind it is in vivo, human. The note with it: patient 108-004, 12 mg/kg; listed as DP.
Data set [5] concerns mouse whole blood and splenocytes. Briefly: Ex vivo/in vitro dexamethasone concentration-response curve.

Take cyclophosphamide/fludarabine [Cy/Flu]: the “induction of AVM-NKT cells by comparators” value in [1] is “not induced”; in [1] (listed as Cyclophosphamide/fludarabine), “does not induce”. For the same molecule, in [2] (13 mg/kg HED cyclophosphamide and 0.8 mg/kg HED fludarabine, 48 hours), the “Total NKT cell numbers” value is given as “no such increase”.

As to `C[C@@H]1C[C@H]2[C@@H]3CCC4=CC(=O)C=C[C@]4(C)[C@@]3(F)[C@@H](O)C[C@]2(C)[C@@]1(O)C(=O)CO` [dexamethasone], in data set [1] (normal mice, after dexamethasone dosing), the “time to induction of AVM-NKT cells in the spleen” value is ≤ 48 h. The “apoptosis of A20 cells” value in the data set on A20 cells was “about 30%”. Besides, in [2] (18 mg/kg HED DP, 18 mg/kg), the platelet numbers result is “spared; also recorded: does not affect”. For the same molecule, the “number of live hematopoietic stem cells” value in [2] (18 mg/kg HED DP, 6 hours to 35 days, 18 mg/kg) is listed as “spared or increased; also recorded: does not significantly alter”. Also, in data set [2] (high-dose dexamethasone), the Basophils entry is given as “reduced only at the 6 hour time point”; the MSCs result was “spared or increased”; the RBCs entry is on record as “spared”; the eosinophils result was “reduced only at the 24 and 48 hour time points”.

Take `C[C@]12C=CC(=O)C=C1CC[C@@H]1[C@@H]2C(=O)C[C@@]2(C)[C@H]1CC[C@]2(O)C(=O)CO` [prednisone]: the biologic half-life result in data set [3] is on record as “about 20 hours”.

Take `C[C@@H]1C[C@H]2[C@@H]3CCC4=CC(=O)C=C[C@]4(C)[C@@]3(F)[C@@H](O)C[C@]2(C)[C@@]1(O)C(=O)COP(=O)(O)O` [DSP, Dexamethasone sodium phosphate]: in data set [4] (BRGSF humanized mice), the “cell population corresponding to AVM-NKT cells” value was “can be observed”. In addition, the “cells corresponding to AVM-NKT cells, % of total splenocytes” value in data set [4] (HuCD34-NCG mice) and in data set [4] (huNOG EXL mice) was 0.2-3% each time.

Regarding methylprednisone, the “induction of AVM-NKT cells by comparators” value in data set [1] is “not induced”.

Take `C[C@@H]1C[C@H]2[C@@H]3CCC4=CC(=O)C=C[C@]4(C)[C@@]3(F)[C@@H](O)C[C@]2(C)[C@@]1(O)C(=O)COP(=O)(O)O` [dexamethasone phosphate, Dexamethasone phosphate, reference compound]: in the data set on A20 B cell lymphoma, the “time of maximal ablation of A20 lymphoma implanted in the flank” value was ≤ 3 h; the “time of maximal eradication of A20 metastasis to blood and thymus” value was 24 h; the “time of maximal eradication of A20 metastasis to bone marrow” value was determined as 48 h. Also, the “CD56+ γδTCR+ iTCR+ cells/uL” value in the data set on CD56+γδTCR+iTCR+ cells (patient 103-005, 9 mg/kg, 1 hour post-infusion) came to 22 cells/uL. In the data set with CD56+γδTCR+iTCR+ cells (patient 108-004, 12 mg/kg, one hour, 3 days or 14 days after infusion (pre-infusion 0.09%, 4.6 cells/uL)), the “CD56+γδTCR+invTCR+ cells in blood” value was “no evidence”. The “objective beneficial response (PET/CT, clinical chemistries, CBCs or clinical symptoms)” value with R/R NHL is given as “did not have a clinical response”.

`C[C@@H]1C[C@H]2[C@@H]3CCC4=CC(=O)C=C[C@]4(C)[C@@]3(F)[C@@H](O)C[C@]2(C)[C@@]1(O)C(=O)CO` [dexamethasone base]: the “induction of AVM-NKT cells, dose escalation” value in data set [1] (15 mg/kg HED) is reported as “particularly robust production”; in data set [1] (6+6 mg/kg HED: 6 mg/kg at time 0 and 6 mg/kg 24 hours later), “particularly robust production”; in data set [1] (single dose between 6-12 mg/kg HED), “can induce AVM-NKT cells”. For the same molecule, the “human equivalent dose giving an in vivo peak blood concentration of 100 uM” value in [5] is reported as ~2.8 mg/kg. Further, the “response of RBCs” value in data set [5] (ex vivo, any concentration (data not shown)) is “no response”. Further, the “concentration above which apoptosis decreases (biphasic curve)” value in data set [5] (isolated mouse splenocytes and whole blood, 6 hours incubation) was “above 100 uM”.
